The results in this text go back to patent US4323567A, “Arylmalonamido-1-oxadethiacephalosporins” (priority 1976, dated 1982).

What all share (assay): Minimal inhibitory concentration, nutrient agar plate
One experiment relates to E. coli JC-2. In kind it is cell-based. The following applies: Escherichia coli.
The test system of the next experiment is Escherichia coli H. The class given is cell-based.
For a further experiment, the system named is Klebsiella sp. 363. In kind it is cell-based.
The test system of a further experiment is Ps. aeruginosa 24. In kind it is cell-based, Pseudomonas aeruginosa.
For another experiment, the system named is Enterobacter cloacae 233. In kind it is cell-based.
The subject of the next experiment is P. vulgaris CN-329. In kind it is cell-based. The following applies: Proteus vulgaris.
The next experiment deals with E. coli 73. The class given is cell-based, Escherichia coli.
The test system of a further experiment is Klebsiella pneumoniae. In kind it is cell-based.
The subject of a further experiment is E. coli 377. The class given is cell-based, Escherichia coli.
The subject of experiment [1] is Pseudomonas aeruginosa Denken. In kind it is cell-based.
Experiment [2] concerns Serratia marsescens 13880. The class given is cell-based.
The test system of the next experiment is P. morganii No. 9. In kind it is cell-based, Proteus morganii. The conditions noted are these: Morganella morganii.
The next experiment has as its system Ps. aeruginosa 25619. In kind it is cell-based, Pseudomonas aeruginosa.
The next experiment concerns P. vulgaris No. 3. The class given is cell-based. The conditions noted are these: Proteus vulgaris.
The next experiment concerns Proteus mirabilis PR-4. In kind it is cell-based.
[3] abbreviates: JC2, ester, in the presence of 5% horse serum, sodium salt, inoculum size 10^8, pH 7.0, read-out: Minimal inhibitory concentration.
The mark [4] stands for this setting: ester, in the presence of 5% horse serum, sodium salt, inoculum size 10^8, pH 7.0, read-out: Minimal inhibitory concentration.
Setting [5] is: SP.363, ester, in the presence of 5% horse serum, sodium salt, inoculum size 10^8, pH 7.0, read-out: Minimal inhibitory concentration.
[6] abbreviates: Pseudomonas aeruginosa, 24, ester, in the presence of 5% horse serum, sodium salt, inoculum size 10^8, pH 7.0, read-out: Minimal inhibitory concentration.
[7] abbreviates: Enterobacter cloacae, 233, ester, in the presence of 5% horse serum, sodium salt, inoculum size 10^8, pH 7.0, read-out: Minimal inhibitory concentration.
The mark [8] stands for this setting: CN329, ester, in the presence of 5% horse serum, sodium salt, inoculum size 10^8, pH 7.0, read-out: Minimal inhibitory concentration.
Where [9] appears, read: Escherichia coli, 73, ester, in the presence of 5% horse serum, sodium salt, inoculum size 10^8, pH 7.0, read-out: Minimal inhibitory concentration.
Where [10] appears, read: Escherichia coli, 377, ester, in the presence of 5% horse serum, sodium salt, inoculum size 10^8, pH 7.0, read-out: Minimal inhibitory concentration.
Setting [11] is: Serratia, 13880, ester, in the presence of 5% horse serum, sodium salt, inoculum size 10^8, pH 7.0, read-out: Minimal inhibitory concentration.
[12] abbreviates: NO.9, ester, in the presence of 5% horse serum, sodium salt, inoculum size 10^8, pH 7.0, read-out: Minimal inhibitory concentration.
[13] abbreviates: Pseudomonas aeruginosa, 25619, ester, in the presence of 5% horse serum, sodium salt, inoculum size 10^8, pH 7.0, read-out: Minimal inhibitory concentration.
Setting [14] is: NO.3, ester, in the presence of 5% horse serum, sodium salt, inoculum size 10^8, pH 7.0, read-out: Minimal inhibitory concentration.
[15] abbreviates: PR4, ester, in the presence of 5% horse serum, sodium salt, inoculum size 10^8, pH 7.0, read-out: Minimal inhibitory concentration.
The mark [16] stands for this setting: as sodium salt, inoculum size 10^8, pH 7.0, read-out: Minimal inhibitory concentration.
[17] abbreviates: pH 7, read-out: Minimal inhibitory concentration.

Values after ≈ are worked out from the molar mass of the structure shown. Where two headings read alike, the source gives them in different places. Bounds are passed on as bounds.

In the case of `CO[C@@]1(NC(=O)C(C(=O)Oc2ccc3c(c2)CCC3)c2ccc(O)cc2)C(=O)N2C(C(=O)O)=C(CSc3nnnn3C)CO[C@@H]21` (stereo partly drawn) [III-16, 7β-[α-P-hydroxyphenyl-α-(5-indanyl)oxycarvonylacetamido]-7β-methoxy-3-(1-methyltetrazol-5-yl)thiomethyl-1-oxadethia-3-cephem-4-carboxylic acid], the MIC in the experiment with E. coli JC-2 (setting [3]) was found to be 0.02 µg/mL; with Escherichia coli H (setting [4]), 0.1 µg/mL; with Klebsiella sp. 363 (setting [5]), 0.2 µg/mL; in the experiment on Ps. aeruginosa 24 (setting [6]), 25 µg/mL; in the experiment with Enterobacter cloacae 233 (setting [7]), 0.39 µg/mL; in the experiment on P. vulgaris CN-329 (setting [8]) it was 0.78 µg/mL. For the same compound, the MIC with E. coli 73 (setting [9]) was found to be 0.78 µg/mL; in the experiment with Klebsiella pneumoniae (setting [4]), 0.2 µg/mL; in the experiment with E. coli 377 (setting [10]), 0.2 µg/mL; in experiment [1] (setting [4]) it was 100 µg/mL; in [2] (setting [11]), 0.39 µg/mL; in the experiment on P. morganii No. 9 (setting [12]), 0.2 µg/mL. Further, the MIC in the experiment on Ps. aeruginosa 25619 (setting [13]) turned out to be 12.5 µg/mL; in the experiment with P. vulgaris No. 3 (setting [14]), 0.39 µg/mL; with Proteus mirabilis PR-4 (setting [15]) it was 0.39 µg/mL.
Take `CO[C@@]1(NC(=O)C(C(=O)O)c2ccsc2)C(=O)N2C(C(=O)O)=C(CSc3nnnn3C)CO[C@@H]21` (stereo partly drawn) [III-19, 7β-[α-(3-thienyl)-α-carboxyacetamido]-7α-methoxy-3-(1-methyltetrazol-5-yl)thiomethyl-1-oxadethia-3-cephem-4-carboxylic acid]: the MIC came to 0.05 µg/mL in the experiment on E. coli JC-2 (JC2, as sodium salt, inoculum size 10^8, pH 7.0, read-out: Minimal inhibitory concentration); 0.025 µg/mL in the experiment with Escherichia coli H (setting [16]); 0.05 µg/mL with Klebsiella sp. 363 (SP.363, as sodium salt, inoculum size 10^8, pH 7.0, read-out: Minimal inhibitory concentration); 50 µg/mL in the experiment on Ps. aeruginosa 24 (Pseudomonas aeruginosa, 24, as sodium salt, inoculum size 10^8, pH 7.0, read-out: Minimal inhibitory concentration); 0.1 µg/mL in the experiment with Enterobacter cloacae 233 (Enterobacter cloacae, 233, as sodium salt, inoculum size 10^8, pH 7.0, read-out: Minimal inhibitory concentration); 0.1 µg/mL in the experiment with P. vulgaris CN-329 (CN329, as sodium salt, inoculum size 10^8, pH 7.0, read-out: Minimal inhibitory concentration). The MIC in the experiment with E. coli 73 (Escherichia coli, 73, as sodium salt, inoculum size 10^8, pH 7.0, read-out: Minimal inhibitory concentration) was 0.2 µg/mL; with Klebsiella pneumoniae (setting [16]) it was 0.2 µg/mL; in the experiment on E. coli 377 (Escherichia coli, 377, as sodium salt, inoculum size 10^8, pH 7.0, read-out: Minimal inhibitory concentration), 0.1 µg/mL; in experiment [1] (setting [16]) it was 100 µg/mL; in [2] (Serratia, 13880, as sodium salt, inoculum size 10^8, pH 7.0, read-out: Minimal inhibitory concentration) it was 0.39 µg/mL; in the experiment with P. morganii No. 9 (NO.9, as sodium salt, inoculum size 10^8, pH 7.0, read-out: Minimal inhibitory concentration) it was 0.1 µg/mL. Moreover, the MIC with Ps. aeruginosa 25619 (Pseudomonas aeruginosa, 25619, as sodium salt, inoculum size 10^8, pH 7.0, read-out: Minimal inhibitory concentration) came out at 12.5 µg/mL; in the experiment on P. vulgaris No. 3 (NO.3, as sodium salt, inoculum size 10^8, pH 7.0, read-out: Minimal inhibitory concentration), 0.2 µg/mL; with Proteus mirabilis PR-4 (PR4, as sodium salt, inoculum size 10^8, pH 7.0, read-out: Minimal inhibitory concentration), 0.2 µg/mL.
For the compound `CO[C@@]1(NC(=O)C(C(=O)Oc2ccc3c(c2)CCC3)c2ccccc2)C(=O)N2C(C(=O)O)=C(CSc3nnnn3C)CO[C@@H]21` (stereo partly drawn) [III-24, 7β-[α-(indan-5-yl)oxycarbonyl-α-phenylacetamido]-7α-methoxy-3-(1-methyltetrazol-5-yl)thiomethyl-1-oxadethia-3-cephem-4-carboxylic acid], the MIC in the experiment on E. coli JC-2 (setting [3]) was found to be 0.01 µg/mL; with Escherichia coli H (setting [4]), 0.025 µg/mL; in the experiment with Klebsiella sp. 363 (setting [5]) it was 0.05 µg/mL; in the experiment on Ps. aeruginosa 24 (setting [6]), 50 µg/mL; in the experiment with Enterobacter cloacae 233 (setting [7]), 0.2 µg/mL; in the experiment on P. vulgaris CN-329 (setting [8]), 0.1 µg/mL. The MIC in the experiment on E. coli 73 (setting [9]) was 0.39 µg/mL; in the experiment with Klebsiella pneumoniae (setting [4]), 0.1 µg/mL; in the experiment on E. coli 377 (setting [10]) it was 0.78 µg/mL; in experiment [1] (setting [4]), 100 µg/mL; in [2] (setting [11]) it was 0.78 µg/mL; in the experiment on P. morganii No. 9 (setting [12]), 0.2 µg/mL. Moreover, the MIC turned out to be 12.5 µg/mL in the experiment on Ps. aeruginosa 25619 (setting [13]), 0.39 µg/mL in the experiment on P. vulgaris No. 3 (setting [14]) and 0.1 µg/mL in the experiment on Proteus mirabilis PR-4 (setting [15]).
On to `CO[C@@]1(NC(=O)C(C(=O)O)c2ccc(OC(=O)NC(N)=O)cc2)C(=O)N2C(C(=O)O)=C(CSc3nnnn3C)CO[C@@H]21` (stereo partly drawn) [III-27, 7β-(α-p-ureidocarbonyloxyphenyl-α-carboxyacetamido)-7α-methoxy-3-(1-methyltetrazol-5-yl)thiomethyl--oxadethia-3-cephem-4-carboxylic acid], for which the MIC with E. coli JC-2 (JC2, pH 7, read-out: Minimal inhibitory concentration) worked out at 0.2 µg/mL (≈ 0.33 µM); with Escherichia coli H (setting [17]), 0.05 µg/mL (≈ 0.0824 µM); with Klebsiella sp. 363 (SP.363, pH 7, read-out: Minimal inhibitory concentration), 0.2 µg/mL (≈ 0.33 µM); in the experiment with Ps. aeruginosa 24 (Pseudomonas aeruginosa, 24, pH 7, read-out: Minimal inhibitory concentration) it was 50 µg/mL (≈ 82.4 µM); with Enterobacter cloacae 233 (Enterobacter cloacae, 233, pH 7, read-out: Minimal inhibitory concentration), 0.78 µg/mL (≈ 1.29 µM); with P. vulgaris CN-329 (CN329, pH 7, read-out: Minimal inhibitory concentration), 0.2 µg/mL (≈ 0.33 µM). The MIC in the experiment with E. coli 73 (Escherichia coli, 73, pH 7, read-out: Minimal inhibitory concentration) is 0.78 µg/mL (≈ 1.29 µM); in the experiment with Klebsiella pneumoniae (setting [17]), 0.39 µg/mL (≈ 0.643 µM); in the experiment on E. coli 377 (Escherichia coli, 377, pH 7, read-out: Minimal inhibitory concentration), 0.78 µg/mL (≈ 1.29 µM); in experiment [1] (setting [17]), more than 100 µg/mL; in experiment [2] (Serratia, 13880, pH 7, read-out: Minimal inhibitory concentration), 3.13 µg/mL (≈ 5.16 µM); with P. morganii No. 9 (NO.9, pH 7, read-out: Minimal inhibitory concentration), 0.2 µg/mL (≈ 0.33 µM). Moreover, the MIC was 12.5 µg/mL (≈ 20.6 µM) in the experiment on Ps. aeruginosa 25619 (Pseudomonas aeruginosa, 25619, pH 7, read-out: Minimal inhibitory concentration); 0.39 µg/mL (≈ 0.643 µM) with P. vulgaris No. 3 (NO.3, pH 7, read-out: Minimal inhibitory concentration); 0.2 µg/mL (≈ 0.33 µM) in the experiment on Proteus mirabilis PR-4 (PR4, pH 7, read-out: Minimal inhibitory concentration).
